Like-named read-outs stand apart in the source and are kept apart here.
Experiments:
BRD4(BD1) = biological target: T1, BRD4(BD1) (Homo sapiens, UniProt O60885); assay: BRD4 AlphaLisa binding assay (Alphascreen)
T1 construct: His; made in house
Summary of the method: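 BRD4(BD1) (30 nM) incubated 20 min at room temperature with peptide (200 nM) and compound in 40 mM HEPES pH 7.0, 40 mM NaCl, 1 mM DTT, 0.01% BSA, 0.008% Brij-35, 1.2% DMSO.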

IL-6 secretion = assay: Cell-based IL-6 quantification assay (ELISA, Mesoscale) in LPS-stimulated THP-1 cells; details: THP-1 cells, 16 h, read-out: IL6
Summary of the method: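 THP-1 cells stimulated with LPS at 4 μg/mL final and exposed to compounds for 16 h. Supernatant IL-6 measured by Mesoscale ELISA and normalized to CellTiter-Glo cell content. Percent inhibition derived from that ratio.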

MYC mRNA [1] = assay: cMyc RNA quantification assay (QuantiGene) in Raji cells; assay type: cell-based; details: 4 h
Description: (§1) MV4:11 (AML) or Raji (Burkitt's lymphoma) cells were seeded in a 96-well plate and incubated in the presence of various concentrations of compounds for 4 h. Relative mRNA levels were quantitated by using QuantiGene 2.0 assay (Affymetrix) according to the manufacturer's recommendation. Signals were detected by using an Envision plate reader (Perkin-Elmer). Biological duplicates were averaged and normalized to vehicle (DMSO) control to calculate percent MYC mRNA levels.

Myc RNA = Myc RNA quantification in xenograft model; assay type: in vivo, NOD SCID mice; details: for ED50: Mus musculus, Raji, po
Description: Female NOD SCID mice (Harlan) were inoculated s.c. with 3×10^6 Raji cells per mouse resuspended in 10% Matrigel. Tumors were grown until they reached a size of 200 mm^3 to 400 mm^3 as measured by caliper. Mice were treated orally (5 mL/kg) with different doses of compounds prepared as a 2 mg/mL suspension of Carboxy-methyl-cellulose. At the indicated time points after treatment, tumors were harvested. RNA was isolated by using TRIzol extraction and processed for QuantiGene® Assay.

MYC mRNA [2] = assay: cMyc RNA quantification assay (QuantiGene) in MV4:11 cells; assay type: cell-based; details: read-out: MYC-MV411
Description: as §1

[3] = tested on: LPS-induced IL-6 production; assay: In-vivo inhibition of LPS-induced IL-6 production; set-up: species or system Balb/C mice; details: for ED50 (mg/kg): Table 15, oral gavage 30 min prior to LPS, plasma IL-6 ELISA two hours after LPS challenge, 50% inhibition compared to vehicle; for ED50: Mus musculus
Description: Female Balb/C mice, 6 weeks old upon arrival at animal facility, and weighing 18-20 g/mouse were used for this assay. The mice are acclimated in animal facility for 5-7 days prior experiment initiation. Mice were randomly divided into experimental groups to include several doses of test article, and vehicle and dexamethasone controls. Mice were fasted from 12 hours prior to study initiation (dosing), but allowed free access to water. Mice were dosed following study group design by oral gavage 30 min prior to LPS stimulation. Dosing interval time was 1 min/mouse.
Two hours after LPS challenge animals were anesthetized by CO2 inhalation, and blood was sampled via cardiac puncture into EDTA coated tubes and placed on ice. Plasma was separated by centrifugation at 3000 g at 4° C. for 15 min. The separated plasma was divided into aliquots (50 ul/aliquot) and stored at −80° C. until plasma IL-6 ELISA and drug levels were analyzed.

[4] = Table 6, BRD4(BD1) 30 nM, H4-tetraacetyl peptide 200 nM, read-out: BRD4 Alphascreen IC50
[5] = Homo sapiens, THP-1, 16 h, Table 7, LPS 4 μg/mL, normalised to CellTiter-Glo
[6] = Homo sapiens, Table 7, Raji (Burkitt's lymphoma) cells
[7] = Table 7, LPS 4 μg/mL, normalised to CellTiter-Glo
[8] = Table 7, Raji (Burkitt's lymphoma) cells
[9] = Table 7, MV4:11 (AML) cells, 4 h
[10] = Homo sapiens, MV4-11, 4 h, Table 7, MV4:11 (AML) cells
[11] = Table 14, BRD4 AlphaLisa Binding Assay, read-out: Alpha screen
[12] = Homo sapiens, THP-1, 16 h, Table 14, LPS
[13] = Homo sapiens, Table 14, Raji cells
[14] = Homo sapiens, MV4-11, 4 h, Table 14, MV4:11 cells

Compound | IC50 (BRD4(BD1); [4]) [nM] | IC50 (IL-6 secretion; [5]) [nM] | IC50 (MYC mRNA [1]; [6]) [nM] | IC50 (IL-6 secretion; [7]) [nM] | IC50 (MYC mRNA [1]; [8]) [nM] | IC50 (BRD4(BD1); [11]) [nM] | IC50 (IL-6 secretion; [12]) [nM] | IC50 (MYC mRNA [2]; [14]) [nM] | other results
Cc1noc2c1-c1sc(C)c(C)c1C(c1ccc(C#N)cc1)=NC2CC(=O)NCCF (stereo not drawn) [Compound 114] | < 500 | < 500 | < 500 | – | – | – | – | – | ED50 (Myc RNA): 20 to 50 mg/kg
COCCNC(=O)C[C@@H]1N=C(c2ccc(Cl)cc2)c2ccccc2-c2c(C)noc21 [Compound 145] | < 500 | – | – | < 500 | < 500 | – | – | – | IC50 (MYC mRNA [2]; [9]): < 500 nM
Cc1noc2c1-c1ccnc(F)c1C(c1ccc(Cl)cc1)=N[C@H]2CC(N)=O [Compound 180, 2-((4S)-6-(4-Chlorophenyl)-7-fluoro-1-methyl-4H-isoxazolo[5,4-c]pyrido[4,3-e]azepin-4-yl)acetamide] | – | < 500 | 500 to 1000 | – | – | – | – | – | IC50 (MYC mRNA [2]; [10]): 500 to 1000 nM
Cc1cccc2c1C(c1ccc(OC(F)(F)F)cc1)=N[C@@H](CC(N)=O)c1onc(C)c1-2 [Compound 136] | < 500 | – | – | < 500 | < 500 | – | – | – | IC50 (MYC mRNA [2]; [9]): < 500 nM
Cc1noc2c1-c1sc(C)c(C)c1C(c1ccc(C#N)cc1)=N[C@H]2[C@@H](C)C(N)=O [Compound 209, (2R)-2-((6S)-4-(4-cyanophenyl)-2,3,9-trimethyl-6H-isoxazolo[5,4-c]thieno[2,3-e]azepin-6-yl)propanamide] | – | – | – | – | – | < 500 | < 500 | < 500 | IC50 (MYC mRNA [1]; [13]): 500 to 1000 nM
Cc1noc2c1-c1ccccc1C(c1ccc(Cl)cc1)=N[C@H]2CC(N)=O [Compound 144] | – | – | – | < 500 | < 500 | – | – | – | IC50 (MYC mRNA [2]; [9]): < 500 nM; ED50 (mg/kg) [3]: ++ (“++” indicates an ED50 of less than 10 mg/kg); ED50 (mg/kg) (Myc RNA; Table 16, Raji xenograft tumors, oral treatment, Myc RNA by QuantiGene, 50% inhibition compared to vehicle): ++ (“++” indicates an ED50 of less than 20 mg/kg)
Cc1cccc2c1C(c1ccc(F)cc1)=NC(CC(N)=O)c1onc(C)c1-2 (stereo not drawn) [Compound 129] | < 500 | < 500 | < 500 | – | – | – | – | – | ED50 [3]: < 10 mg/kg; ED50 (Myc RNA): 20 to 50 mg/kg
Cc1cccc2c1C(c1ccc(C#N)cc1)=N[C@@H](CC(N)=O)c1onc(C)c1-2 [Compound 130] | < 500 | – | – | < 500 | < 500 | – | – | – | IC50 (MYC mRNA [2]; [9]): < 500 nM
Cc1cccc2c1C(c1ccc(Cl)cc1)=NC(CC(N)=O)c1onc(C)c1-2 (stereo not drawn) [Compound 128] | < 500 | – | – | < 500 | < 500 | – | – | – | ED50 (mg/kg) [3]: ++ (“++” indicates an ED50 of less than 10 mg/kg)
CCNC(=O)C[C@@H]1N=C(c2ccc(Cl)cc2)c2c(sc(C)c2C)-c2c(C)noc21 [Compound 165, 2-((6S)-4-(4-chlorophenyl)-2,3,9-trimethyl-6H-isoxazolo[4,5-e]thieno[3,2-c]azepin-6-yl)-N-ethylacetamide] | < 500 | < 500 | < 500 | – | – | – | – | – | ED50 [3]: 10 to 50 mg/kg
Cc1noc2c1-c1sc(C)c(C)c1C(c1ccc(Cl)cc1)=N[C@H]2CC(N)=O [Compound 110, 2-((6S)-4-(4-chlorophenyl)-2,3,9-trimethyl-6H-isoxazolo[5,4-c]thieno[2,3-e]azepin-6-yl)acetamide] | < 500 | < 500 | < 500 | – | – | – | – | – | IC50 (MYC mRNA [2]; [10]): < 500 nM; ED50 [3]: < 10 mg/kg; ED50 (Myc RNA): 20 to 50 mg/kg
Cc1noc2c1-c1ccc(F)cc1C(c1ccc(Cl)cc1)=N[C@H]2CC(N)=O [Compound 210] | – | – | – | – | – | < 500 | < 500 | < 500 | IC50 (MYC mRNA [1]; [13]): 500 to 1000 nM
Cc1noc2c1-c1ccccc1C(c1ccc(C#N)cc1)=N[C@H]2CC(N)=O [Compound 148] | < 500 | – | – | < 500 | < 500 | – | – | – | IC50 (MYC mRNA [2]; [9]): < 500 nM; ED50 (mg/kg) [3]: + (“+” indicates and ED50 of between 10 and 50 mg/kg)
Cc1noc2c1-c1sc(C)c(C)c1C(c1ccc(C(F)(F)F)cc1)=NC2CC(N)=O (stereo not drawn) [Compound 208] | – | – | – | – | – | < 500 | < 500 | < 500 | IC50 (MYC mRNA [1]; [13]): < 500 nM
CNc1nccc2c1C(c1ccc(Cl)cc1)=N[C@@H](CC(N)=O)c1onc(C)c1-2 [Compound 181, 2-((4S)-6-(4-chlorophenyl)-1-methyl-7-(methylamino)-4H-isoxazolo[5,4-c]pyrido[4,3-e]azepin-4-yl)acetamide] | < 500 | < 500 | < 500 | – | – | – | – | – | IC50 (MYC mRNA [2]; [10]): < 500 nM
Cc1noc2c1-c1ccc(-c3ccc(N)nc3)cc1C(c1ccc(C(F)(F)F)cc1)=N[C@H]2CC(N)=O [Compound 206] | – | – | – | – | – | < 500 | < 500 | < 500 | IC50 (MYC mRNA [1]; [13]): < 500 nM
Cc1noc2c1-c1cccc(Cl)c1C(c1ccc(Cl)cc1)=N[C@H]2CC(N)=O [Compound 139] | < 500 | – | – | < 500 | < 500 | – | – | – | IC50 (MYC mRNA [2]; [9]): < 500 nM
Cc1cccc2c1C(c1ccc(C(F)(F)F)cc1)=NC(CC(N)=O)c1onc(C)c1-2 (stereo not drawn) [Compound 132] | < 500 | < 500 | < 500 | – | – | – | – | – | IC50 (MYC mRNA [2]; [10]): < 500 nM; ED50 [3]: < 10 mg/kg; ED50 (Myc RNA): < 20 mg/kg
CNc1ccc2c(n1)-c1c(C)noc1CN=C2c1ccc(Cl)cc1 [Compound 221, 5-(4-Chlorophenyl)-N,10-dimethyl-7H-isoxazolo[5,4-c]pyrido[2,3-e]azepin-2-amine] | – | – | – | – | – | > 1000 | > 1000 | > 1000 | –
Cc1noc2c1-c1ccc(=O)[nH]c1C(c1ccc(Cl)cc1)=NC2 [Compound 243, 6-(4-Chlorophenyl)-1-methyl-4H-isoxazolo[5,4-c]pyrido[3,2-e]azepin-8(7H)-one] | – | – | – | – | – | 500 to 1000 | > 1000 | > 1000 | –
Cc1noc2c1-c1cnc(Cl)cc1C(c1ccc(Cl)cc1)=NC2 [Compound 256, 8-Chloro-6-(4-chlorophenyl)-1-methyl-4H-isoxazolo[5,4-c]pyrido[3,4-e]azepine] | – | – | – | – | – | > 1000 | > 1000 | > 1000 | –
